Here are results for 62 compounds from ChEMBL document CHEMBL1255530, “3D-QSAR CoMFA study of benzoxazepine derivatives as mGluR5 positive allosteric modulators” (Bioorg Med Chem Lett, 2010).

One may read the EC50 as the concentration giving half of the maximal effect.

Sequence of Metabotropic glutamate receptor 5 (P31424 whole entry): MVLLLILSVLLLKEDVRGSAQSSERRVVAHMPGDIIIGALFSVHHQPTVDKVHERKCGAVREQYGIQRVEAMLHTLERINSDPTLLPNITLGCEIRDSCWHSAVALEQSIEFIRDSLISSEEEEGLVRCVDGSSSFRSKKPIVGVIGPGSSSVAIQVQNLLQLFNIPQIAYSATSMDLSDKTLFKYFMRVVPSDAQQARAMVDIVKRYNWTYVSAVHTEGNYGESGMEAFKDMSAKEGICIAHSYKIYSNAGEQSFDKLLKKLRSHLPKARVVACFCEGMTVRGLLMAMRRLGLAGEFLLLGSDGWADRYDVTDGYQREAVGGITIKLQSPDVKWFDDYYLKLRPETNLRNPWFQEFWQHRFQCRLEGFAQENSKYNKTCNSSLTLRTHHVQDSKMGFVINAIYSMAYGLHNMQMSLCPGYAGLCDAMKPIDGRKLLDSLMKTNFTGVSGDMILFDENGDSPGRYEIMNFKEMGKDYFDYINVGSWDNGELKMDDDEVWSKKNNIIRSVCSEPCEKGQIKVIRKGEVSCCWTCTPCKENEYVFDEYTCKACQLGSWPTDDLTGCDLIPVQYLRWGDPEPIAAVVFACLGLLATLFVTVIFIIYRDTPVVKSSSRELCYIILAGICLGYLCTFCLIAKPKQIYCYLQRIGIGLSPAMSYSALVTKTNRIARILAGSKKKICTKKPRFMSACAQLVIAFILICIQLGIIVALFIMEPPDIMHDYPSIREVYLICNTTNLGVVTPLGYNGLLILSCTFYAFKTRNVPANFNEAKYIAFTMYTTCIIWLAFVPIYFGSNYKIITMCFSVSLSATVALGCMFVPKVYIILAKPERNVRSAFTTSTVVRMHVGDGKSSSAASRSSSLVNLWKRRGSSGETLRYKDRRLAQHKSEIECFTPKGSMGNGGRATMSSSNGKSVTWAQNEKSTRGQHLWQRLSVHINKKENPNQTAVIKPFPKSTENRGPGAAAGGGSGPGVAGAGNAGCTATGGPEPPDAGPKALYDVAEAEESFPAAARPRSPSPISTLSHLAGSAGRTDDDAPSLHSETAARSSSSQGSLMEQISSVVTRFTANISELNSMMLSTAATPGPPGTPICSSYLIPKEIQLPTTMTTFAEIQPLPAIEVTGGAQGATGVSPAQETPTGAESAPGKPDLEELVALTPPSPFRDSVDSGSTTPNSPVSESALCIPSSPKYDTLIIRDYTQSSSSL

The assay has as its target Metabotropic glutamate receptor 5 (Rattus norvegicus, UniProt P31424). In words: Positive allosteric modulation of rat mGluR5 expressed in HEK293 cells.
For the compound `CSc1nnc2c(n1)O[C@@H](c1cn(C)c3ccccc13)N(C(C)=O)c1ccccc1-2`, the midpoint of the response, the EC50, lay at 1.82 µM.
As for `CSc1nnc2c(n1)O[C@@H](c1ccc(OC(C)=O)c(Br)c1)N(C(C)=O)c1ccccc1-2`, the EC50 was 3.8 µM.
With `CCC(=O)N1c2ccccc2-c2nnc(SC)nc2O[C@H]1c1ccccc1Br` the figure was 1.35 µM; with `CCOc1cc([C@@H]2Oc3nc(SC)nnc3-c3ccccc3N2C(=O)CC)cc(Br)c1OC`, 7.08 µM; with `CSc1nnc2c(n1)O[C@@H](c1cccc(C)n1)N(C(C)=O)c1ccccc1-2`, 7.59 µM.
Turning to `CSc1nnc2c(n1)O[C@@H](c1ccccn1)N(C(C)=O)c1ccccc1-2`, the response was half-maximal at 5.25 µM (EC50).
In the case of `CCC(=O)N1c2ccccc2-c2nnc(SC)nc2O[C@H]1c1cc(Cl)c(OC)c(OC)c1`, the concentration giving a half-maximal response (EC50) is 1.2 µM.
Compound `CCCCSc1nnc2c(n1)O[C@@H](c1cccc(F)c1)N(C(C)=O)c1ccccc1-2` gave an EC50 of 0.513 µM.
With `C=CCOc1ccc([C@@H]2Oc3nc(SC)nnc3-c3ccccc3N2C(C)=O)cc1` the figure was 2.57 µM; with `CSc1nnc2c(n1)O[C@@H](c1ccc(C)cc1)N(C(C)=O)c1ccccc1-2`, 2.75 µM.
Compound `CCCCSc1nnc2c(n1)O[C@@H](c1cccn1C)N(C(C)=O)c1ccccc1-2` gave an EC50 of 0.692 µM.
As for `CCC(=O)N1c2ccccc2-c2nnc(SC)nc2O[C@H]1c1ccc(OC)c(C)c1`, the figure is 3.63 µM; as for `CSc1nnc2c(n1)O[C@@H](c1cccc(Oc3ccccc3)c1)N(C(C)=O)c1ccccc1-2`, 2.95 µM.
For `CSc1nnc2c(n1)O[C@@H](c1ccccc1C)N(C(C)=O)c1ccccc1-2`, the EC50 was 3.02 µM.
`CCC(=O)N1c2ccccc2-c2nnc(SC)nc2O[C@H]1c1cc(Br)c(OC)c(OC)c1` had a concentration giving a half-maximal response (EC50) of 1.23 µM.
`CCSc1nnc2c(n1)O[C@@H](c1cccc(OC)c1)N(C(=O)CC)c1ccccc1-2` showed a concentration giving a half-maximal response (EC50) of 0.107 µM.
The compound `CSc1nnc2c(n1)O[C@@H](c1ccsc1)N(C(C)=O)c1ccccc1-2` showed an EC50 of 1.02 µM.
The compound `COc1ccc(OC)c([C@@H]2Oc3nc(SC)nnc3-c3ccccc3N2C(C)=O)c1` gave a concentration for a half-maximal effect (EC50) of 0.891 µM.
Take `CCC(=O)N1c2ccccc2-c2nnc(SC)nc2O[C@H]1c1ccccc1F`: the concentration for a half-maximal effect (EC50) was 1.78 µM.
`C=CCSc1nnc2c(n1)O[C@@H](c1ccc(OC(C)=O)c(OCC)c1)N(C(C)=O)c1ccccc1-2`: a half-maximal response (EC50) required 1.26 µM.
The compound `CCCSc1nnc2c(n1)O[C@@H](c1cc(OC)c(OC)cc1Cl)N(C(C)=O)c1ccccc1-2` gave a half-maximal effective concentration (EC50) of 1.2 µM.
For `CCCSc1nnc2c(n1)O[C@@H](c1cccn1C)N(C(C)=O)c1ccccc1-2`, a half-maximal response (EC50) required 0.347 µM.
As for `C=CCSc1nnc2c(n1)O[C@@H](c1cc(C)ccc1OC(C)=O)N(C(C)=O)c1ccccc1-2`, the figure is 0.891 µM; as for `CCC(=O)N1c2ccccc2-c2nnc(SC)nc2O[C@H]1c1cc(OC)c(OC)c(OC)c1`, 0.832 µM.
As for `CCCCSc1nnc2c(n1)O[C@@H](c1ccsc1)N(C(C)=O)c1ccccc1-2`, the figure is 0.479 µM; as for `CCCCSc1nnc2c(n1)O[C@@H](c1cccc(C)n1)N(C(C)=O)c1ccccc1-2`, 0.617 µM; as for `CCCC(=O)N1c2ccccc2-c2nnc(SC)nc2O[C@H]1c1ccc(C(=O)OC)cc1`, 2.24 µM.
`C=CCSc1nnc2c(n1)O[C@@H](c1ccc(OCC)c(OC)c1)N(C(C)=O)c1ccccc1-2` showed a concentration giving a half-maximal response (EC50) of 0.692 µM.
`CCSc1nnc2c(n1)O[C@@H](c1ccccc1F)N(C(C)=O)c1ccccc1-2` had an EC50 of 0.398 µM.
As to `C=CCSc1nnc2c(n1)O[C@@H](/C=C/c1cccs1)N(C(C)=O)c1ccccc1-2`, a half-maximal effect (EC50) was put at 0.229 µM.
As to `C=CCSc1nnc2c(n1)O[C@@H](c1cc(Br)c(OC(C)=O)c(OC)c1)N(C(C)=O)c1ccccc1-2`, the EC50 was 3.31 µM.
As for `CCC(=O)N1c2ccccc2-c2nnc(SC)nc2O[C@H]1c1ccco1`, the figure is 4.27 µM; as for `C=CCSc1nnc2c(n1)O[C@@H](c1ccccc1F)N(C(C)=O)c1ccccc1-2`, 1.12 µM.
As for `C=CCSc1nnc2c(n1)O[C@@H](/C=C/c1ccccc1)N(C(C)=O)c1ccccc1-2`, the figure is 1.7 µM; as for `CCC(=O)N1c2ccccc2-c2nnc(SC)nc2O[C@H]1c1ccc(I)o1`, 1.41 µM; as for `CCC(=O)N1c2ccccc2-c2nnc(SC)nc2O[C@H]1c1ccc(Cl)cc1`, 0.871 µM.
As for `C=CCSc1nnc2c(n1)O[C@@H](c1cccs1)N(C(C)=O)c1ccccc1-2`, the figure is 0.316 µM; as for `C=CCSc1nnc2c(n1)O[C@@H](c1ccco1)N(C(C)=O)c1ccccc1-2`, 1.02 µM.
In turn, `CCC(=O)N1c2ccccc2-c2nnc(SC)nc2O[C@H]1c1ccccc1C` had a concentration for a half-maximal effect (EC50) of 2 µM.
As for `CCC(=O)N1c2ccccc2-c2nnc(SC)nc2O[C@H]1c1ccc(OC)c(Br)c1`, the figure is 1.1 µM; as for `C=CCSc1nnc2c(n1)O[C@@H](c1ccccc1)N(C(C)=O)c1ccccc1-2`, 0.0955 µM.
With `C=CCSc1nnc2c(n1)O[C@@H](c1ccccn1)N(C(C)=O)c1ccccc1-2` the figure was 0.562 µM; with `C=CCSc1nnc2c(n1)O[C@@H](c1ccccc1OCCC)N(C(C)=O)c1ccccc1-2`, 1.32 µM.
As for `CSc1nnc2c(n1)O[C@H](c1cn(C(C)=O)c3ccccc13)N(C(C)=O)c1ccccc1-2`, the figure is 0.871 µM; as for `C=CCOc1ccc([C@@H]2Oc3nc(SCC=C)nnc3-c3ccccc3N2C(C)=O)cc1`, 1.2 µM; as for `C=CCSc1nnc2c(n1)O[C@@H](c1ccc(N(C)C)cc1)N(C(C)=O)c1ccccc1-2`, 3.16 µM.
For the compound `CCSc1nnc2c(n1)O[C@H](c1ccc(OC(C)=O)c(OC)c1)N(C(C)=O)c1ccccc1-2`, the EC50 is 1 µM.
As for `CCSc1nnc2c(n1)O[C@H](c1cc3c(cc1Br)OCO3)N(C(C)=O)c1ccccc1-2`, the figure is 4.27 µM.
`CCCSc1nnc2c(n1)O[C@@H](c1ccncc1)N(C(C)=O)c1ccccc1-2`: the concentration for a half-maximal effect (EC50) is 0.49 µM.
As for `CCCSc1nnc2c(n1)O[C@@H](c1ccccc1OC)N(C(C)=O)c1ccccc1-2`, the response was half-maximal at 0.158 µM (EC50).
In turn, `CCSc1nnc2c(n1)O[C@H](c1ccccc1C)N(C(C)=O)c1ccccc1-2` gave an EC50 of 2.04 µM.
As for `CCSc1nnc2c(n1)O[C@H](c1cccnc1)N(C(C)=O)c1ccccc1-2`, the figure is 1.82 µM.
As for `CSc1nnc2c(n1)O[C@@H](c1cccc(F)c1)N(C(C)=O)c1ccccc1-2`, the figure is 1.26 µM; as for `CSc1nnc2c(n1)O[C@@H](c1c(C)[nH]c3ccccc13)N(C(C)=O)c1ccccc1-2`, 4.07 µM.
As for `CCCSc1nnc2c(n1)O[C@H](c1ccccc1OC(C)=O)N(C(C)=O)c1ccccc1-2`, the figure is 1.32 µM; as for `CCSc1nnc2c(n1)O[C@@H](c1cc(OC(C)=O)ccc1Cl)N(C(C)=O)c1ccccc1-2`, 3.8 µM.
Compound `CSc1nnc2c(n1)O[C@@H](c1cccn1C)N(C(C)=O)c1ccccc1-2` had an EC50 of 9.55 µM.
As for `CCSc1nnc2c(n1)O[C@@H](c1ccc(C)s1)N(C(C)=O)c1ccccc1-2`, the figure is 1.2 µM; as for `CCCOc1ccccc1[C@@H]1Oc2nc(SCC)nnc2-c2ccccc2N1C(C)=O`, 1.12 µM.
As for `CCSc1nnc2c(n1)O[C@@H](c1ccco1)N(C(C)=O)c1ccccc1-2`, the figure is 0.871 µM; as for `CCC(=O)N1c2ccccc2-c2nnc(SC)nc2O[C@H]1c1ccc(Br)s1`, 1.12 µM; as for `CCOc1cc([C@@H]2Oc3nc(SC)nnc3-c3ccccc3N2C(=O)CC)ccc1OC`, 1.38 µM.
